According to patent US20250144020A1, “ULTRA-LONG FLOATING HYDROGEL RAFT FOR PROLONGED GASTRIC RETENTION AND APPLICATIONS REQUIRING BUOYANCY WITH CONTROLLED-RELEASE” (Nanyang Technological University, priority 2022, published 2025):
Counter-ions that a name gives are not always drawn.

Experiments:
[1] = In vitro release of MT in FaSGF with model fitting; assay type: physicochemical; conditions: 37° C., 150 rpm
Description: Receptacle cap type rafts were used for the release studies as the receptacle allows the loading of the FD, MP, and FM. The receptacle cap assembly also ensures that the system can be adopted for other drugs easily. This design was used to prevent the interaction of drugs with water in the hydrogel. 100 mg of free drug MT was weighed in triplicates and added to the receptacle of the raft before closing the lid to complete the assembly. Similarly, 20 mg of the MPs (prepared in Example 7) or one FM (prepared in Example 8) was weighed in replicates and added to the receptacle of the raft and closed with cap to obtain the raft containing MT in different forms. Drug forms that were not encased in the raft served as controls.
Required amounts of FD, MP, or FM were added to the receptacle of the raft, and the cap was used to close the structure to obtain FD encased in raft (FD-R), MP encased in raft (MP-R), and FM encased in raft (FM-R). This raft assembly was then tested under simulated gastric conditions using FaSGF in a shaking incubator (150 rpm) at 37° C. All experiments were carried out in triplicates. […] The collected samples were analyzed for the drugs using HPLC. For MT, acetonitrile:PBS (60:40) (PBS adjusted to pH 4.7) was used as the mobile phase at a flow rate of 0.8 ml/min and detected at 244 nm. […]

[2] = cited from earlier work
[3] = In vitro release of Ris in FaSGF with model fitting; assay type: physicochemical; conditions: not encased in raft
Description: This raft assembly was then tested under simulated gastric conditions using FaSGF in a shaking incubator (150 rpm) at 37° C. All experiments were carried out in triplicates. At specified time points, the release media were collected and replaced with an equal volume of fresh FaSGF. The collected samples were analyzed for the drugs using HPLC. […] Each drug form, without the raft, served as a control. To elucidate the mechanism of drug release, the release data were fitted to mathematical models.
Four different forms of the drug were used: 1. free drug; 2. commercial tablet; 3. drug encapsulated MPs; and 4. drug encapsulated FMes. […] Each drug form, without the raft, served as a control.
Receptacle cap type rafts were used for the release studies as the receptacle allows the loading of the FD, MP, and FM. […] Drug forms that were not encased in the raft served as controls.

time of MT release (sustained over / dissolved completely in), in words [1]	Structure (SMILES)	water solubility (in words) [2]	time to complete dissolution, uncased [3]
one hour	COCCc1ccc(OCC(O)CNC(C)C)cc1 (stereo not shown) [MT, metoprolol tartrate]	water-soluble	
	Cc1nc2n(c(=O)c1CCN1CCC(c3noc4cc(F)ccc34)CC1)CCCC2 [Ris, Risperidone]	insoluble in water	1 h
